Active and inactive are the calls of the source. The rule behind the calls is not given here.
Target: T1, 3',5'-cyclic-AMP phosphodiesterase 4B (Homo sapiens, UniProt Q07343)
Test: Inhibition of PDE4B expressed in HEK293 cells assessed as fold reduction in forskolin-stimulated cAMP production pretreated for 30 mins measured 4 hrs after forskolin challenge by luciferase reporter gene assay
Assay type: functional, cell-based

T1 sequence (Q07343 whole entry): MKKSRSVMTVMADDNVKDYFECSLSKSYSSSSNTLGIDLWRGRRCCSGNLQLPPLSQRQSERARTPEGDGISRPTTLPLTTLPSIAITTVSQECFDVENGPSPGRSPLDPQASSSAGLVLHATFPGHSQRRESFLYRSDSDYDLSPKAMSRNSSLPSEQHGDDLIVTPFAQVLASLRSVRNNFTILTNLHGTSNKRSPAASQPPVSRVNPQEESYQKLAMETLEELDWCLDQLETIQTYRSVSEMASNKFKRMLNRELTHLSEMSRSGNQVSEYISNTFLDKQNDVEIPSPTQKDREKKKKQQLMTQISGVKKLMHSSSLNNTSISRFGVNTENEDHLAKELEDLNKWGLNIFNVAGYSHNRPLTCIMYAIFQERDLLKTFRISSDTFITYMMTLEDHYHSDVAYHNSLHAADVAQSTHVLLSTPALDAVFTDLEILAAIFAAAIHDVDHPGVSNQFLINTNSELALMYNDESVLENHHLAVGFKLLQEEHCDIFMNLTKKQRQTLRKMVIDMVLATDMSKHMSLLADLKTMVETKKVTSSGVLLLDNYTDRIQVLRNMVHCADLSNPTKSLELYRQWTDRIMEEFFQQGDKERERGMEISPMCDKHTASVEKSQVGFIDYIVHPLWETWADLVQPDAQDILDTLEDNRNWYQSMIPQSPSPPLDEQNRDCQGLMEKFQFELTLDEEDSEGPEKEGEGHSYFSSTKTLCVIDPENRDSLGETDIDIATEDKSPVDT

| SMILES | EC50 [nM] | inhibition |
| --- | --- | --- |
| COc1ccc2c(-c3nc4ccccc4cc3C#N)c[nH]c2c1 | 890 | Dose-dependent effect |

Target: T1, 3',5'-cyclic-AMP phosphodiesterase 4B
Test: Inhibition of PDE4B expressed in HEK293 cells assessed as fold reduction in forskolin-stimulated cAMP production at 10 uM pretreated for 30 mins measured 4 hrs after forskolin challenge by luciferase reporter gene assay
Assay type: functional, cell-based

| SMILES | PDE4B inhibition activity (fold reduction in cAMP) |
| --- | --- |
| COc1ccc2c(-c3nc4ccccc4cc3C#N)c[nH]c2c1 | Active |
| Cc1ccc2nc(-c3c[nH]c4ccccc34)c(C#N)cc2c1 | Active |
| Cc1ccc2nc(-c3c[nH]c4ccc(Br)cc34)c(C#N)cc2c1 | Active |
| Cn1cc(-c2nc3ccccc3cc2C#N)c2ccccc21 | Active |
| COc1ccc2[nH]cc(-c3nc4ccccc4cc3C#N)c2c1 | Active |
| COc1ccc2c(-c3nc4ccc(C)cc4cc3C#N)c[nH]c2c1 | Active |
| N#Cc1cc2ccccc2nc1-c1c[nH]c2ccccc12 | Active |
| Cc1ccc2nc(-c3c[nH]c4ccc(Cl)cc34)c(C#N)cc2c1 | Active |
| N#Cc1cc2ccccc2nc1-c1c[nH]c2cc(F)c(F)cc12 | Active |
| COc1ccc2[nH]cc(-c3nc4ccc(C)cc4cc3C#N)c2c1 | Active |
| N#Cc1cc2ccccc2nc1-c1c[nH]c2ccc(Br)cc12 | Active |
| N#Cc1cc2ccccc2nc1-c1c[nH]c2ccc(Cl)cc12 | Active |

Source: ChEMBL document CHEMBL1955788, “C-C bond formation at C-2 of a quinoline ring: synthesis of 2-(1H-indol-3-yl)quinoline-3-carbonitrile derivatives as a new class of PDE4 inhibitors” (Bioorg Med Chem, 2012)
